Experimental data reported in patent publication US20230257396A1, “MACROCYCLES AND THEIR USE” (BLOSSOMHILL THERAPEUTICS, INC., priority 2020, published 2023).

Experiments:
Test in all cases: KINOMEscan kinase binding assay (Eurofins/DiscoveRx), % Ctrl
kinases [1] = target: T1, kinases (Homo sapiens, UniProt P00519, T315I)
T1 construct: purchased Eurofins/DiscoveRx; host or cells: E. coli BL21-derived host (T7 phage display) for most kinases; HEK-293 for the rest
Procedure, shortened: (§1)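 Competition binding: DNA- or phage-tagged kinases (T7 phage in E. coli BL21, or HEK-293-expressed) with immobilized biotinylated ligand beads and test compound, 1 h at room temperature. Bead-bound kinase eluted and quantified by qPCR; % Ctrl = (compound − positive control)/(negative control − positive control) ×100 at a single compound concentration.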

kinases [2] = target: T2, kinases (Homo sapiens, UniProt P00533, G719S)
T2 construct: purchased Eurofins/DiscoveRx; host or cells: E. coli BL21-derived host (T7 phage display) for most kinases; HEK-293 for the rest
Procedure, shortened: as §1

kinases [3] = target: T3, kinases (Homo sapiens, UniProt P10721, T670I/V559D)
T3 construct: purchased Eurofins/DiscoveRx; host or cells: E. coli BL21-derived host (T7 phage display) for most kinases; HEK-293 for the rest
Procedure, shortened: as §1

kinases [4] = target: T4, kinases (Homo sapiens, UniProt P16234)
T4 construct: purchased Eurofins/DiscoveRx; host or cells: E. coli BL21-derived host (T7 phage display) for most kinases; HEK-293 for the rest
Procedure, shortened: as §1

kinases [5] = target: T5, kinases (Homo sapiens, UniProt P36888, K663Q)
T5 construct: purchased Eurofins/DiscoveRx; host or cells: E. coli BL21-derived host (T7 phage display) for most kinases; HEK-293 for the rest
T5 sequence (P36888 27-993 K663Q): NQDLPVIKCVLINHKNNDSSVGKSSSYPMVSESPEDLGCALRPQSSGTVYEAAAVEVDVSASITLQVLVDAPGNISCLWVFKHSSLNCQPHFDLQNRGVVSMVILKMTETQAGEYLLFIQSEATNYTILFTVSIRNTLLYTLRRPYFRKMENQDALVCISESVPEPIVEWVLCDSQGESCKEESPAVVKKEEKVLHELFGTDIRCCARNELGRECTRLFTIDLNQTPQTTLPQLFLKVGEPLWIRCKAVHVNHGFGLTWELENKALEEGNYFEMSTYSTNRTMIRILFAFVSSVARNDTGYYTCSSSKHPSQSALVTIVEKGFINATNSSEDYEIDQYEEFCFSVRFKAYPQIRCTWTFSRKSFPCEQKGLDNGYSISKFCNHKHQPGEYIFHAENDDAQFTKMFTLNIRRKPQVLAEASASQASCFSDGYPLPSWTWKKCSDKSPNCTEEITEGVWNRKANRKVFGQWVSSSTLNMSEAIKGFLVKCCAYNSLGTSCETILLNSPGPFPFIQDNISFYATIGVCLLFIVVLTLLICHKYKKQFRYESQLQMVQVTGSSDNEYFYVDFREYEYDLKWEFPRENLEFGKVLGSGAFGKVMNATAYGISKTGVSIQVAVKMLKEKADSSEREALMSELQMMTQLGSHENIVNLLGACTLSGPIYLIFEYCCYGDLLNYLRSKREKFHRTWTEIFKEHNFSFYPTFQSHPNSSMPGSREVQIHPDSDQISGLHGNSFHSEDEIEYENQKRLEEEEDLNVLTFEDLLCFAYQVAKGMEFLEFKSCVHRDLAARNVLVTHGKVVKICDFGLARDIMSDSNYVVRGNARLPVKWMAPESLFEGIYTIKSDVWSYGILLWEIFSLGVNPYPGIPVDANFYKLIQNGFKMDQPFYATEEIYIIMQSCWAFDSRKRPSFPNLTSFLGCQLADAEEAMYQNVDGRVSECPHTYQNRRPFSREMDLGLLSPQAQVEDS
Procedure, shortened: as §1

kinases [6] = target: T6, kinases (Homo sapiens, UniProt P42684)
T6 construct: purchased Eurofins/DiscoveRx; host or cells: E. coli BL21-derived host (T7 phage display) for most kinases; HEK-293 for the rest
Procedure, shortened: as §1

[7] = 1 μM; target ABL1(T315I)-nonphosphorylated
[8] = 1 μM; target ABL1(T315I)-phosphorylated
[9] = 1 μM; ABL1(T315I)-nonphosphorylated
[10] = 1 μM; ABL1(T315I)-phosphorylated

T6 sequence (P42684 whole entry): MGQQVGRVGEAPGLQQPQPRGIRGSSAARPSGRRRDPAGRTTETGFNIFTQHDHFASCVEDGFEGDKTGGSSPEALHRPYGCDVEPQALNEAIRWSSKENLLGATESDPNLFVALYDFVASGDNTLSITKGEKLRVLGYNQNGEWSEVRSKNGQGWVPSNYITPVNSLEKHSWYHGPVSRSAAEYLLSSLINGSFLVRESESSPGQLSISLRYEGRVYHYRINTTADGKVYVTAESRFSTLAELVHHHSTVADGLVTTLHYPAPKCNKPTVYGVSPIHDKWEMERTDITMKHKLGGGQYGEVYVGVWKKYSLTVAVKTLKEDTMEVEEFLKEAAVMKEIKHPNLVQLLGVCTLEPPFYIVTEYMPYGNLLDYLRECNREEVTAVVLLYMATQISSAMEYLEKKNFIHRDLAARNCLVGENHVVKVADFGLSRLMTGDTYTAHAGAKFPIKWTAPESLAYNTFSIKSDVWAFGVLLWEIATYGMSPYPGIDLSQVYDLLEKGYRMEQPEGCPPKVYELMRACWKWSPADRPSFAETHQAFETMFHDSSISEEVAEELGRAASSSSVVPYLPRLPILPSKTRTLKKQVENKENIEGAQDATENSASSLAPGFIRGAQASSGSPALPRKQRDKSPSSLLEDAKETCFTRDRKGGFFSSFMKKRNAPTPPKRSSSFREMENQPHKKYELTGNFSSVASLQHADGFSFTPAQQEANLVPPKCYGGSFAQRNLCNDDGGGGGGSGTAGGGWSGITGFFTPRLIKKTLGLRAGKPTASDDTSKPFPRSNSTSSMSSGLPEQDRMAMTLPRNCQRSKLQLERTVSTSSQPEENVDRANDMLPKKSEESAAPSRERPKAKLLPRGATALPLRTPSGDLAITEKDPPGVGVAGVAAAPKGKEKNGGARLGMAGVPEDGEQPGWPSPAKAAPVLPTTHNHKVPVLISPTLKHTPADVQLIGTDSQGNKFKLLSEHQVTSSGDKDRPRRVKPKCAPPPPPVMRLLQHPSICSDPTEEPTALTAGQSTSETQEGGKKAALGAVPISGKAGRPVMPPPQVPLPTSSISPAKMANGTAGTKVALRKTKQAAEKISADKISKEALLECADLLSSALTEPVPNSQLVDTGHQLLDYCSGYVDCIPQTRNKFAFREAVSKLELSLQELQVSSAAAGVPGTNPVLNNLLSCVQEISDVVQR
T3 sequence (P10721 26-976 V559D/T670I): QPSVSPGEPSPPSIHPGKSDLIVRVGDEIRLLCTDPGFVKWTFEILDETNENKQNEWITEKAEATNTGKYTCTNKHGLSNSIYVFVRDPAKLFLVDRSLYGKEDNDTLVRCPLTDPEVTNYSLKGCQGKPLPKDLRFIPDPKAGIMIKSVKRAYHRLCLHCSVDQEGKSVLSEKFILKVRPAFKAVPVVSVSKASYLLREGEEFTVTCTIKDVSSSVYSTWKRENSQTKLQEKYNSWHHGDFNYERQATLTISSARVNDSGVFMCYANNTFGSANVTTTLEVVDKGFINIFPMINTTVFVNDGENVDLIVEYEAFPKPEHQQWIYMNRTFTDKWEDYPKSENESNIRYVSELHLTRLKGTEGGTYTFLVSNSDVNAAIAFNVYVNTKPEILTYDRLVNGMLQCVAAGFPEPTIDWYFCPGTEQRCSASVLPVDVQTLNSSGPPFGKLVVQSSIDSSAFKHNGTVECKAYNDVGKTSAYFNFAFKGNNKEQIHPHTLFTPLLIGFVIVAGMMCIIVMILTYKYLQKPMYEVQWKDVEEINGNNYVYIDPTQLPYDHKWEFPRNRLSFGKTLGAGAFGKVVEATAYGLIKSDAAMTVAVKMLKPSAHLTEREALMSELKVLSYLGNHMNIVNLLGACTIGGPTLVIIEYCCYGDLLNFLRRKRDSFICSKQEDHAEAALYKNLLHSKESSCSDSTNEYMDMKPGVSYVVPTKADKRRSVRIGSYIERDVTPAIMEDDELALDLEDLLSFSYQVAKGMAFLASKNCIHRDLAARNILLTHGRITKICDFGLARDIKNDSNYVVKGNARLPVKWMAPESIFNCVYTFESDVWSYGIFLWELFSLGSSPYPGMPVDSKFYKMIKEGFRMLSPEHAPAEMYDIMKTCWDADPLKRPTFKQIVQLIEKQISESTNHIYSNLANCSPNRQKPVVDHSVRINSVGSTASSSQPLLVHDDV
T4 sequence (P16234 24-1089): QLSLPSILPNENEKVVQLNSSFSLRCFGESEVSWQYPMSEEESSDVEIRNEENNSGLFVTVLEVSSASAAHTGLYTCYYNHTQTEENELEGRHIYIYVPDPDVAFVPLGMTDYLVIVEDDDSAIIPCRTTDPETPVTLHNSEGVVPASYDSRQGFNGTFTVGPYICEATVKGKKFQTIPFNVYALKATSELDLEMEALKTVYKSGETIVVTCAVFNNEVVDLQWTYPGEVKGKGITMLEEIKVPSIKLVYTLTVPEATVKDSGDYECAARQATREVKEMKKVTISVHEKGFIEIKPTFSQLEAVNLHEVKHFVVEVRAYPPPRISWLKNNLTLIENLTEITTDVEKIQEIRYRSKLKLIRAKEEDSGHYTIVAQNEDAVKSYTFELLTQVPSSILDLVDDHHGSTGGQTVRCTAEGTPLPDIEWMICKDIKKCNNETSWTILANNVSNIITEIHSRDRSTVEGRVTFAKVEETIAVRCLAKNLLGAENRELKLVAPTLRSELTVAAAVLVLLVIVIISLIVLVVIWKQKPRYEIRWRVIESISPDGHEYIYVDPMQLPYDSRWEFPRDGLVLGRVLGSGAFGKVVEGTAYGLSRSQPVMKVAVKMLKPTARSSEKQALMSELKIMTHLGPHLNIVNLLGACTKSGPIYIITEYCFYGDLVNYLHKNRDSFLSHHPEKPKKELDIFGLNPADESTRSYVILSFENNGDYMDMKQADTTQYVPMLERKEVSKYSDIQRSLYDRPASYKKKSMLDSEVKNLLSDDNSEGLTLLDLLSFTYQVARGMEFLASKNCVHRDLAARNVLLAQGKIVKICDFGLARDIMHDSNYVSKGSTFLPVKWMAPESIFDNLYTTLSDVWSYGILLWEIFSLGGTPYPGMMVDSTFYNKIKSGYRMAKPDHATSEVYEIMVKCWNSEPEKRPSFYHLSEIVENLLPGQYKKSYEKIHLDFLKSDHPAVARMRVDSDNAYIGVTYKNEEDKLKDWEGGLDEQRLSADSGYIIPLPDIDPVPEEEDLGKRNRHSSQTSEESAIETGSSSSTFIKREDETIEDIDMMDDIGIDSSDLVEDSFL

Structure (SMILES)	% Ctrl, ABL1(T315I)-nonphosphorylated (kinases [1]; [7]) [% Ctrl]	% Ctrl, ABL1(T315I)-phosphorylated (kinases [1]; [8]) [% Ctrl]	% Ctrl, EGFR(G719S) (kinases [2]; 1 μM; target EGFR(G719S)) [% Ctrl]	% Ctrl, KIT(V559D, T670I) (kinases [3]; 1 μM; target KIT(V559D, T670I)) [% Ctrl]	% Ctrl, PDGFRA (kinases [4]; 1 μM; target PDGFRA) [% Ctrl]	% Ctrl, FLT3(K663Q) (kinases [5]; 1 μM; target FLT3(K663Q)) [% Ctrl]	% Ctrl, ABL2 (kinases [6]; 1 μM; target ABL2) [% Ctrl]	% Ctrl, ABL1(T315I)-nonphosphorylated (kinases [1]; [9]) [% Ctrl]	% Ctrl, ABL1(T315I)-phosphorylated (kinases [1]; [10]) [% Ctrl]	% Ctrl, EGFR(G719S) (kinases [2]; 1 μM; EGFR(G719S)) [% Ctrl]	% Ctrl, KIT(V559D, T670I) (kinases [3]; 1 μM; KIT(V559D, T670I)) [% Ctrl]	% Ctrl, PDGFRA (kinases [4]; 1 μM; PDGFRA) [% Ctrl]	% Ctrl, FLT3(K663Q) (kinases [5]; 1 μM; FLT3(K663Q)) [% Ctrl]	% Ctrl, ABL2 (kinases [6]; 1 μM; ABL2) [% Ctrl]	other results
Cc1cc2c([nH]1)/C=C1\C(=O)Nc3cnc(cc31)-c1cnn(C)c1CN(C)CCN(C)C2=O [Ex. 172, [3a(4)Z]-6,9,12,14-tetramethyl-9,10,11,12,13,14-hexahydro-17,1-(azenometheno)pyrazolo[4,3-m]dipyrrolo[3,2-f:3′,4′-i][1,4]diazacyclopentadecine-3,8(2H,5H)-dione]	0	1.7	82	48	44	0.6	4.2	–	–	–	–	–	–	–	–
Cc1cc2c([nH]1)/C=C1\C(=O)Nc3cc(Cl)c(cc31)OCCO[C@@H](C(=O)N[C@@H]1CCNC1)CN(C)C2=O [Ex. 136, [7R,16a(17)Z]-19-chloro-2,5-dimethyl-4,16-dioxo-N-[(3R)-pyrrolidin-3-yl]-4,5,6,7,9,10,15,16-octahydro-1H-12,14-(ethanediylidene)dipyrrolo[3,2-i:3′,4′-l][1,4,7]dioxazacyclopentadecine-7-carboxamide]	–	–	–	–	–	–	–	77	37	92	3.2	56	64	77	–
Cc1cc2c([nH]1)/C=C1\C(=O)Nc3cnc(nc31)N(C)CCCOCCN(C)C2=O [Ex.71, [17a(18)Z]-2,5,12-trimethyl-6,7,9,10,11,12-hexahydro-1H-13,15-(azenometheno)dipyrrolo[3,2-f:3′,4′-i][1,4,11,13]oxatriazacyclohexadecine-4,17(5H,16H)-dione]	–	–	–	–	–	–	–	100	100	76	100	100	84	100	–
Cc1cc2c([nH]1)/C=C1\C(=O)Nc3cc(Cl)c(cc31)OCCO[C@@H](C(=O)N1CCN(C)CC1)CN(C)C2=O [Ex. 138, [7R,16a(17)Z]-19-chloro-2,5-dimethyl-7-(4-methylpipearazine-1-carbonyl)-6,7,9,10-tetrahydro-1H-12,14-(ethanediylidene)dipyrrolo[3,2-i:3′,4′-l][1,4,7]dioxazacyclopentadecine-4,16(5H,15H)-dione]	–	–	–	–	–	–	–	–	–	–	–	–	–	–	% Ctrl, ABL1(T315I)-nonphosphorylated (kinases [1]; target ABL1(T315I)-nonphosphorylated; 1 μM): 87 % Ctrl; % Ctrl, ABL1(T315I)-phosphorylated (kinases [1]; target ABL1(T315I)-phosphorylated; 1 μM): 76 % Ctrl; % Ctrl, EGFR(G719S) (kinases [2]; target EGFR(G719S); 1 μM): 95 % Ctrl; % Ctrl, KIT(V559D, T670I) (kinases [3]; target KIT(V559D, T670I); 1 μM): 73 % Ctrl; % Ctrl, PDGFRA (kinases [4]; target PDGFRA; 1 μM): 75 % Ctrl; % Ctrl, FLT3(K663Q) (kinases [5]; target FLT3(K663Q); 1 μM): 95 % Ctrl; % Ctrl, ABL2 (kinases [6]; target ABL2; 1 μM): 98 % Ctrl
Cc1cc2c([nH]1)/C=C1\C(=O)Nc3ccc(cc31)-c1cnn(C)c1COCCN(C)C2=O [Ex. 124, [3a(4)Z]-6,9,14-trimethyl-10,11,13,14-tetrahydro-2H-1,17-(ethanediylidene)pyrazolo[4,3-m]dipyrrolo[3,2-f:3′,4′-i][1,4]oxazacyclopentadecine-3,8(5H,9H)-dione]	–	–	–	–	–	–	–	0	0.1	97	24	7.9	13	2.4	–
Cc1cc2c([nH]1)/C=C1\C(=O)Nc3ccc(cc31)-c1c(noc1C(C)C)COCCN(C)C2=O [Ex. 161, [3a(4)Z]-9-methyl-16-(propan-2-yl)-10,11-dihydro-2H,13H-1,17-(ethanediylidene)[1,2]oxazolo[4,3-m]dipyrrolo[3,2-f:3′,4′-i][1,4]oxazacyclopentadecine-3,8(5H,9H)-dione]	90	85	58	95	100	54	87	–	–	–	–	–	–	–	–
Cc1cc2c([nH]1)/C=C1\C(=O)Nc3ccc(cc31)-c1cnn(C)c1CN(C)CCN(C)C2=O [Ex. 126, [3a(4)Z]-6,9,12,14-tetramethyl-9,10,11,12,13,14-hexahydro-1,17-(ethanediylidene)pyrazolo[4,3-m]dipyrrolo[3,2-f:3′,4′-i][1,4]diazacyclopentadecine-3,8(2H,5H)-dione]	–	–	–	–	–	–	–	0	0	57	3.6	1.2	4.2	0.9	–
Cc1cc2c([nH]1)/C=C1\C(=O)Nc3cc(Cl)c(cc31)OCCO[C@@H](C(=O)N(C)C)CN(C)C2=O [Ex. 137, [7R,16a(17)Z]-19-chloro-N,N,2,5-tetramethyl-4,16-dioxo-4,5,6,7,9,10,15,16-octahydro-1H-12,14-(ethanediylidene)dipyrrolo[3,2-i:3′,4′-l][1,4,7]dioxazacyclopentadecine-7-carboxamide]	–	–	–	–	–	–	–	81	69	98	27	72	69	99	–
Cc1cc2c([nH]1)/C=C1\C(=O)Nc3cc(Cl)c(cc31)SCCOCCN(C)C2=O [Ex. 169, [16a(17)Z]-19-chloro-5-methyl-6,7,9,10-tetrahydro-1H-12,14-(ethanediylidene)dipyrrolo[3,4-g:2′,3′-j][1,4,13]oxathiazacyclopentadecine-4,16(5H,15H)-dione]	0.3	0.1	88	1.6	16	2.7	0.3	–	–	–	–	–	–	–	–
Cc1cc2c([nH]1)/C=C1\C(=O)Nc3cc(Cl)c(cc31)OCCO[C@@H](C(=O)NC1CCNCC1)CN(C)C2=O [Ex. 134, [7R,16a(17)Z]-19-chloro-2,5-dimethyl-4,16-dioxo-N-(piperidin-4-yl)-4,5,6,7,9,10,15,16-octahydro-1H-12,14-(ethaneidylidene)dipyrrolo[3,2-i:3′,4′-l][1,4,7]dioxazacyclopentadecine-7-carboxamide]	–	–	–	–	–	–	–	84	46	92	3.9	72	73	77	–
